Reference: the NIST ThermoML archive (doi:10.1021/je050112b)
“And” between values parts separate entries of the source, which are not always exact repeats. Identical values can stand only once.

[I][Sm][I] [samarium diiodide]
Liquid
Details	vapor or sublimation pressure
1048 K	0.00013 kPa
1051 K	0.00016 kPa
1064 K	0.00021 kPa
1065 K	0.00019 kPa
1068 K	0.00024 kPa
1069 K	0.00024 kPa
1072 K	0.00021 kPa
1074 K	0.00027 kPa
1076 K	0.00027 kPa and 0.00024 kPa
1078 K	0.00029 kPa
1080 K	0.0004 kPa
1082 K	0.00032 kPa
1085 K	0.00035 kPa
1086 K	0.00035 kPa
1088 K	0.00048 kPa
1089 K	0.00035 kPa
1092 K	0.00043 kPa and 0.00035 kPa
1093 K	0.00043 kPa
1094 K	0.00043 kPa
1096 K	0.00048 kPa
1098 K	0.00045 kPa
1100 K	0.00045 kPa
1101 K	0.00053 kPa
1102 K	0.00075 kPa
1103 K	0.00056 kPa
1104 K	0.00059 kPa
1106 K	0.00056 kPa
1108 K	0.00064 kPa and 0.00051 kPa
1110 K	0.00061 kPa
1111 K	0.00064 kPa
1113 K	0.00064 kPa
1114 K	0.00077 kPa
1118 K	0.00069 kPa and 0.00075 kPa and 0.00064 kPa
1120 K	0.0008 kPa
1121 K	0.00117 kPa
1124 K	0.00093 kPa and 0.00096 kPa and 0.00085 kPa
1125 K	0.00085 kPa
1126 K	0.00091 kPa
1128 K	0.00139 kPa and 0.00085 kPa
1129 K	0.00107 kPa and 0.00096 kPa
1133 K	0.00123 kPa and 0.00104 kPa
1134 K	0.00107 kPa
1135 K	0.00115 kPa
1136 K	0.00134 kPa
1138 K	0.00112 kPa
1139 K	0.00123 kPa
1140 K	0.00176 kPa
1141 K	0.00128 kPa
1142 K	0.00155 kPa and 0.00128 kPa
1144 K	0.00144 kPa
1145 K	0.0016 kPa and 0.00166 kPa
1148 K	0.00144 kPa
1150 K	0.0016 kPa
1151 K	0.0016 kPa
1152 K	0.00198 kPa
1153 K	0.00182 kPa
1154 K	0.00203 kPa
1155 K	0.00214 kPa
1158 K	0.00198 kPa and 0.00192 kPa and 0.00187 kPa
1159 K	0.00262 kPa and 0.00203 kPa
1160 K	0.0023 kPa
1161 K	0.0024 kPa and 0.00219 kPa
1162 K	0.00208 kPa and 0.00203 kPa
1164 K	0.00262 kPa
1167 K	0.00246 kPa
1168 K	0.0024 kPa
1169 K	0.00278 kPa and 0.00288 kPa
1170 K	0.00272 kPa
1171 K	0.00347 kPa and 0.00251 kPa and 0.00246 kPa
1173 K	0.0031 kPa
1177 K	0.00331 kPa [middle of 4 runs]
1178 K	0.00326 kPa
1179 K	0.00288 kPa and 0.00358 kPa and 0.00294 kPa
1181 K	0.00368 kPa
1183 K	0.00449 kPa
1185 K	0.00363 kPa
1186 K	0.00368 kPa [middle of 5 runs]
1187 K	0.00401 kPa
1188 K	0.00427 kPa
1189 K	0.00336 kPa and 0.00331 kPa
1195 K	0.00443 kPa
1196 K	0.00507 kPa

[I][Sm]([I])[I] [samarium triiodide]
Crystal
Details	vapor or sublimation pressure
789 K	0.00017 kPa
797 K	0.00024 kPa
799 K	0.0002 kPa
801 K	0.0002 kPa
805 K	0.00034 kPa
807 K	0.00029 kPa
808 K	0.00025 kPa
814 K	0.00051 kPa
815 K	0.00034 kPa
819 K	0.00051 kPa
823 K	0.00071 kPa and 0.00047 kPa
824 K	0.00064 kPa
832 K	0.00067 kPa
833 K	0.00088 kPa and 0.00101 kPa
840 K	0.00111 kPa and 0.00098 kPa
843 K	0.00145 kPa
849 K	0.00148 kPa and 0.00135 kPa
852 K	0.00212 kPa
856 K	0.00189 kPa
857 K	0.00168 kPa
863 K	0.00236 kPa
867 K	0.00236 kPa
868 K	0.00276 kPa
876 K	0.00307 kPa
